Among the test systems are PC-3 prostate; NCI-H522 lung; MDA-MB-435; MOLT-4 leukemia; TK-10 renal; OVCAR-8 ovarian; SK-OV-3 ovarian; SN12C renal; OVCAR-4 ovarian; OVCAR-3 ovarian.
Holding throughout (assay): NCI anticancer screen, dose series, 48 h

Several values for one entry are separate records, joined by “and”; a condition that tells them apart may be missing. Equal values may be shown once.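 Briefly, cells in 96-well plates were exposed to five compound concentrations for 48 h, and endpoints were estimated by linear interpolation. At the GI50, growth is halved. TGI: concentration producing complete growth inhibition.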

With `CCCCCCNC(=O)Oc1ccc(/C(=C(\C)c2ccccc2)c2ccc(OCCN3CCCCC3)cc2)cc1`, the GI50 was 2.58 µM in the assay with PC-3 prostate; 1.91 µM with NCI-H522 lung; 1.84 µM in the assay on MDA-MB-435; 2.68 µM in the assay on MOLT-4 leukemia; 7.85 µM in the assay on TK-10 renal; 2.14 µM with OVCAR-8 ovarian. Moreover, the GI50 was 5.05 µM in the assay with SK-OV-3 ovarian, 1.7 µM in the assay on SN12C renal, 3.04 µM in the assay on OVCAR-4 ovarian and 1.97 µM with OVCAR-3 ovarian. Moreover, the TGI is 11.5 µM in the assay with PC-3 prostate; 4.07 µM with NCI-H522 lung; 4.01 µM in the assay on MDA-MB-435; 9.66 µM in the assay on MOLT-4 leukemia; 21.4 µM in the assay on TK-10 renal; 5.94 µM in the assay with OVCAR-8 ovarian. In addition, the TGI worked out at 19.3 µM in the assay with SK-OV-3 ovarian, 3.4 µM in the assay on SN12C renal, 10.7 µM in the assay on OVCAR-4 ovarian and 4.82 µM with OVCAR-3 ovarian.
On to `CS(=O)c1ccc(-c2nc(-c3ccc(F)cc3)c(-c3ccncc3)[nH]2)cc1` (configuration not stated), for which the GI50 in the assay with PC-3 prostate was 35.6 µM; in the assay with NCI-H522 lung it was 28.8 µM; in the assay with MDA-MB-435 it was 20.7 µM; in the assay on MOLT-4 leukemia, 28.3 µM; with TK-10 renal, 24.3 µM; with OVCAR-8 ovarian it was 29.6 µM. Further, the GI50 with SK-OV-3 ovarian is 18.8 µM; in the assay with SN12C renal it was 41.9 µM; in the assay with OVCAR-4 ovarian, 39.7 µM; in the assay with OVCAR-3 ovarian it was 25.9 µM. Also, the TGI was more than 89.4 µM with PC-3 prostate; more than 85.6 µM in the assay with NCI-H522 lung; more than 100 µM with MDA-MB-435; more than 96.4 µM in the assay on MOLT-4 leukemia; more than 78.1 µM with TK-10 renal; more than 100 µM in the assay with OVCAR-8 ovarian. For the same molecule, the TGI with SK-OV-3 ovarian is more than 82 µM; with SN12C renal it was more than 100 µM; in the assay on OVCAR-4 ovarian it was more than 100 µM; in the assay on OVCAR-3 ovarian it was more than 100 µM.
As for `COc1ccc(C2C(c3ccccc3)C(=O)N2c2cc(OC)c(OC)c(OC)c2)cc1I` (configuration not stated), the GI50 in the assay on PC-3 prostate is 0.488 µM; in the assay with NCI-H522 lung, 0.276 µM; with MDA-MB-435 it was 0.209 µM; in the assay on MOLT-4 leukemia, 0.337 µM; with TK-10 renal, more than 100 µM; in the assay on OVCAR-8 ovarian it was 0.407 µM. In addition, the GI50 in the assay on SK-OV-3 ovarian is 0.395 µM; in the assay with SN12C renal it was 0.523 µM; in the assay with OVCAR-4 ovarian, 0.709 µM; with OVCAR-3 ovarian it was 0.28 µM. For the same molecule, the TGI with PC-3 prostate is more than 100 µM; in the assay with NCI-H522 lung, 0.887 µM; with MDA-MB-435, 0.644 µM; with MOLT-4 leukemia, more than 100 µM; in the assay with TK-10 renal, more than 100 µM; in the assay with OVCAR-8 ovarian, more than 100 µM. The TGI is more than 100 µM in the assay with SK-OV-3 ovarian, more than 100 µM with SN12C renal, more than 100 µM with OVCAR-4 ovarian and 0.802 µM with OVCAR-3 ovarian.
Regarding `COc1cc(-c2nn(C(=O)NS(=O)(=O)c3ccc(C)cc3)cc2-c2ccncc2)ccc1Cl`, the GI50 with PC-3 prostate is 16.1 µM; in the assay on NCI-H522 lung, 10.4 µM; with MDA-MB-435, 5.6 µM; in the assay on MOLT-4 leukemia it was 10.6 µM; in the assay on TK-10 renal, 4.9 µM; in the assay with OVCAR-8 ovarian, 2.02 µM. Besides, the GI50 is 3.38 µM in the assay on SK-OV-3 ovarian, 3.02 µM in the assay with SN12C renal, 3.26 µM in the assay on OVCAR-4 ovarian and 25.2 µM in the assay with OVCAR-3 ovarian. Moreover, the TGI was more than 100 µM with PC-3 prostate; 26.7 µM with NCI-H522 lung; 25.3 µM in the assay on MDA-MB-435; 54.1 µM in the assay on MOLT-4 leukemia; 19.8 µM in the assay on TK-10 renal; 93.6 µM in the assay on OVCAR-8 ovarian. The TGI with SK-OV-3 ovarian was 13.6 µM; with SN12C renal it was 24.1 µM; in the assay on OVCAR-4 ovarian, 27.3 µM; in the assay on OVCAR-3 ovarian, more than 100 µM.
Consider `Cc1c2ncccc2nc2[nH]c3ccc(OCCN(C)C)cc3c12`, for which the GI50 in the assay with PC-3 prostate was 1.86 µM; in the assay on NCI-H522 lung it was 2.41 µM; with MDA-MB-435 it was 3.12 µM; with MOLT-4 leukemia it was 0.6 µM; in the assay on TK-10 renal, 2.42 µM; in the assay on OVCAR-8 ovarian, 1.49 µM. The GI50 was 2.3 µM in the assay on SK-OV-3 ovarian, 2.5 µM in the assay with SN12C renal, 1.84 µM in the assay on OVCAR-4 ovarian and 3.62 µM in the assay with OVCAR-3 ovarian. In addition, the TGI in the assay on PC-3 prostate is 10.9 µM; in the assay with NCI-H522 lung, 15.9 µM; with MDA-MB-435, 15.7 µM; in the assay with MOLT-4 leukemia, 12.5 µM; in the assay with TK-10 renal it was 9.55 µM; with OVCAR-8 ovarian, 16.5 µM. In addition, the TGI in the assay with SK-OV-3 ovarian turned out to be 17.5 µM; in the assay on SN12C renal, 28.5 µM; with OVCAR-4 ovarian it was 8.75 µM; in the assay with OVCAR-3 ovarian it was 19.7 µM.
As for `COc1ccc2[nH]c(-c3cccc(N(C)C)c3)cc(=O)c2c1`, the GI50 was 0.435 µM with PC-3 prostate; 0.407 µM in the assay with NCI-H522 lung; 0.0444 µM in the assay with MDA-MB-435; 19.8 µM with TK-10 renal; 0.433 µM in the assay with OVCAR-8 ovarian; 0.573 µM with SK-OV-3 ovarian. Also, the GI50 in the assay with SN12C renal is 0.654 µM. Also, the TGI is more than 100 µM in the assay with PC-3 prostate; 0.526 µM and 2.56 µM in the assay on NCI-H522 lung; 0.213 µM and 0.202 µM in the assay on MDA-MB-435; 2.71 µM and 1.56 µM in the assay on MOLT-4 leukemia; more than 100 µM in the assay with TK-10 renal; 2.48 µM and 5.56 µM with OVCAR-8 ovarian. Moreover, the TGI with SK-OV-3 ovarian was 59.2 µM; in the assay with SN12C renal, more than 100 µM; in the assay with OVCAR-4 ovarian, more than 100 µM; in the assay on OVCAR-3 ovarian it was 0.368 µM.
Regarding `COc1cccc(Cn2cc3c(c2)-c2oncc2CC3)c1`, the GI50 is 0.751 µM in the assay with PC-3 prostate; 0.326 µM with NCI-H522 lung; 0.0769 µM in the assay with MDA-MB-435; 0.508 µM in the assay with MOLT-4 leukemia; 0.803 µM in the assay with TK-10 renal; 0.622 µM in the assay with OVCAR-8 ovarian. Moreover, the GI50 with SK-OV-3 ovarian is 0.361 µM; in the assay with SN12C renal, 0.597 µM; with OVCAR-4 ovarian, 1.3 µM; in the assay with OVCAR-3 ovarian, 0.267 µM. Also, the TGI with PC-3 prostate is more than 100 µM; with NCI-H522 lung, 1.89 µM; in the assay on MDA-MB-435, 0.327 µM; with MOLT-4 leukemia it was more than 21.7 µM; with TK-10 renal, more than 100 µM; with OVCAR-8 ovarian, more than 69.3 µM. Further, the TGI was 6.03 µM in the assay with SK-OV-3 ovarian, more than 100 µM in the assay on SN12C renal, more than 85.4 µM in the assay with OVCAR-4 ovarian and 0.7 µM with OVCAR-3 ovarian.
As to `COc1ccc(/C(Cl)=C(\C=O)c2ccc(OC)c(OC)c2)cc1OC`, the TGI in the assay on PC-3 prostate, in the assay on NCI-H522 lung, in the assay with MDA-MB-435, with MOLT-4 leukemia, with TK-10 renal and in the assay on OVCAR-8 ovarian was more than 100 µM each time. Further, the TGI in the assay with SK-OV-3 ovarian is more than 100 µM; with SN12C renal it was more than 100 µM; with OVCAR-4 ovarian, more than 100 µM; with OVCAR-3 ovarian, more than 57.7 µM.

The values are drawn from PubChem BioAssay (NCI).
